According to patent publication US10611747B2, “Pyrone based compounds for treating bacterial infections” (FORGE THERAPEUTICS, INC., priority 2015, dated 2020):
≈ marks a conversion by molar mass, not a printed value. Where two headings read alike, the source gives them in different places.

Tests used:
Assay in all cases: Bacterial susceptibility testing (MIC, broth microdilution)
Format in all cases: cell-based
P. aeruginosa 209 = tested on: P. aeruginosa 209
Description: (§1) Minimal inhibitory concentrations (MIC) were determined by the broth microdilution method in accordance with the Clinical and Laboratory Standards Institute (CLSI) guidelines. In brief, organism suspensions were adjusted to a 0.5 McFarland standard to yield a final inoculum between 3×10^5 and 7×10^5 colony-forming units (CFU)/mL. Drug dilutions and inocula were made in sterile, cation adjusted Mueller-Hinton Broth (Beckton Dickinson). An inoculum volume of 100 μL was added to wells containing 100 μL of broth with 2-fold serial dilutions of drug. All inoculated microdilution trays were incubated in ambient air at 35° C. for 18-24 h. […] Performance of the assay was monitored by the use of laboratory quality-control strains and levofloxacin, a compound with a defined MIC spectrum, in accordance with CLSI guidelines.

S. aureus ATCC 29213 = settings: Staphylococcus aureus
Description: as §1

[1] = tested on: P. aeruginosa 210 delta mexAB-OprM; settings: Pseudomonas aeruginosa, read-out: MIC P. aeruginosa 210 delta mexAB-OprM
Description: as §1

E. coli BW25113 = settings: Escherichia coli, no FBS, 35° C., 18-24 h
Description: as §1

E. coli imp mutant = settings: Escherichia coli, read-out: MIC E. coli imp mutant
Description: as §1

E. coli ATCC 25922 = settings: Escherichia coli
Description: as §1

E. coli delta tolC = settings: Escherichia coli, 24 h, read-out: MIC E. coli delta tolC
Description: as §1

[2] = Pseudomonas aeruginosa, 209, broth microdilution, 35° C., 18-24 h, read-out: MIC P. aeruginosa 209
[3] = ATCC29213, broth microdilution, 35° C., 18-24 h, read-out: MIC S. aureus ATCC 29213
[4] = ATCC25922, no FBS, broth microdilution, 35° C., 18-24 h, read-out: MIC E. coli ATCC 25922-no FBS
[5] = Pseudomonas aeruginosa, 209, read-out: MIC P. aeruginosa 209
[6] = ATCC29213, read-out: MIC S. aureus ATCC 29213
[7] = ATCC25922, read-out: MIC E. coli ATCC 25922-no FBS

SMILES	MIC (P. aeruginosa 209; [2])	MIC (S. aureus ATCC 29213; [3])	MIC [1]	MIC (E. coli BW25113)	MIC (E. coli imp mutant)	MIC (E. coli ATCC 25922; [4])	MIC (E. coli delta tolC)	MIC (P. aeruginosa 209; [5])	MIC (S. aureus ATCC 29213; [6])	MIC (E. coli ATCC 25922; [7])
O=C(c1ccc(C#Cc2ccc(NCc3occc(=O)c3O)cc2)cc1)N1CC(O)C1 [Compound 54]	> 32 µg/mL	> 32 µg/mL	> 32 µg/mL	> 32 µg/mL	> 32 µg/mL	> 32 µg/mL	8 to 32 µg/mL (≈ 19.2 to 76.8 µM)	–	–	–
COC(=O)c1ccc(C#CC#Cc2ccc(NCc3occc(=O)c3O)cc2)cc1 [Compound 31]	> 32 µg/mL	> 32 µg/mL	> 32 µg/mL	> 32 µg/mL	> 32 µg/mL	> 32 µg/mL	1 to 8 µg/mL (≈ 2.5 to 20 µM)	–	–	–
O=c1ccoc(CNc2ccc(C#Cc3ccc(CN4CCOCC4)cc3)cc2)c1O [Compound 55]	> 32 µg/mL	> 32 µg/mL	8 to 32 µg/mL (≈ 19.2 to 76.8 µM)	1 to 8 µg/mL (≈ 2.4 to 19.2 µM)	1 to 8 µg/mL (≈ 2.4 to 19.2 µM)	1 to 8 µg/mL (≈ 2.4 to 19.2 µM)	1 to 8 µg/mL (≈ 2.4 to 19.2 µM)	–	–	–
CN1CC2CN(C(=O)c3ccc(C#CC#Cc4ccc(NCc5occc(=O)c5O)cc4)cc3)C[C@@H]2C1 (stereo partly shown) [Compound 42]	> 32 µg/mL	> 32 µg/mL	8 to 32 µg/mL (≈ 16.2 to 64.8 µM)	1 to 8 µg/mL (≈ 2.03 to 16.2 µM)	1 to 8 µg/mL (≈ 2.03 to 16.2 µM)	1 to 8 µg/mL (≈ 2.03 to 16.2 µM)	< 1 µg/mL	–	–	–
CN(C)[C@@H]1CCN(C(=O)c2ccc(C#CC#Cc3ccc(NCc4occc(=O)c4O)cc3)cc2)C1 [Compound 37]	> 32 µg/mL	> 32 µg/mL	> 32 µg/mL	1 to 8 µg/mL (≈ 2.08 to 16.6 µM)	1 to 8 µg/mL (≈ 2.08 to 16.6 µM)	1 to 8 µg/mL (≈ 2.08 to 16.6 µM)	< 1 µg/mL	–	–	–
COC1CN(C(=O)c2ccc(C#CC#Cc3ccc(NCc4occc(=O)c4O)cc3)cc2)C1 [Compound 51]	> 32 µg/mL	> 32 µg/mL	> 32 µg/mL	1 to 8 µg/mL (≈ 2.2 to 17.6 µM)	1 to 8 µg/mL (≈ 2.2 to 17.6 µM)	1 to 8 µg/mL (≈ 2.2 to 17.6 µM)	< 1 µg/mL	–	–	–
N#Cc1ccc(C#Cc2ccc(NCc3occc(=O)c3O)cc2)cc1 [Compound 52]	> 32 µg/mL	> 32 µg/mL	> 32 µg/mL	> 32 µg/mL	> 32 µg/mL	> 32 µg/mL	> 32 µg/mL	–	–	–
O=C(NCc1cc(=O)c(O)co1)c1ccc(-c2ccccc2)cc1 [Compound 29]	> 32 µg/mL	> 32 µg/mL	> 32 µg/mL	> 32 µg/mL	> 32 µg/mL	> 32 µg/mL	> 32 µg/mL	–	–	–
O=C(c1ccc(C#CC#Cc2ccc(NCc3occc(=O)c3O)cc2)cc1)N1CCCCC1 [Compound 33]	> 32 µg/mL	> 32 µg/mL	> 32 µg/mL	1 to 8 µg/mL (≈ 2.21 to 17.7 µM)	1 to 8 µg/mL (≈ 2.21 to 17.7 µM)	8 to 32 µg/mL (≈ 17.7 to 70.7 µM)	< 1 µg/mL	–	–	–
CS(=O)(=O)Cc1cc(=O)c(O)c(COc2ccc(C#Cc3ccccc3)cc2)o1 [Compound 9, 2-((4-(2-phenylethynyl)phenoxy)methyl)-3-hydroxy-6-((methylsulfonyl)methyl)-4H-pyran-4-one]	–	–	> 32 µg/mL	> 32 µg/mL	8 to 32 µg/mL (≈ 19.5 to 78 µM)	–	8 to 32 µg/mL (≈ 19.5 to 78 µM)	> 32 µg/mL	8 to 32 µg/mL (≈ 19.5 to 78 µM)	> 32 µg/mL
O=C(c1ccc(C#CC#Cc2ccc(NCc3occc(=O)c3O)cc2)cc1)N1CCC(O)C1 (stereo not shown) [Compound 45]	> 32 µg/mL	> 32 µg/mL	8 to 32 µg/mL (≈ 17.6 to 70.4 µM)	1 to 8 µg/mL (≈ 2.2 to 17.6 µM)	< 1 µg/mL	1 to 8 µg/mL (≈ 2.2 to 17.6 µM)	< 1 µg/mL	–	–	–
O=C(NCc1cc(=O)c(O)co1)c1ccc(C#Cc2ccccc2)cc1 [Compound 27]	> 32 µg/mL	> 32 µg/mL	> 32 µg/mL	> 32 µg/mL	> 32 µg/mL	> 32 µg/mL	> 32 µg/mL	–	–	–
CS(=O)(=O)Cc1cc(=O)c(O)c(COc2ccc(C#CC#Cc3ccccc3)cc2)o1 [Compound 11]	–	–	–	–	–	–	–	> 32 µg/mL	1 to 8 µg/mL (≈ 2.3 to 18.4 µM)	> 32 µg/mL
CNC(=O)c1ccc(-c2ccc(NCc3oc(CNS(C)(=O)=O)cc(=O)c3O)cc2)cc1 [Compound 1, 4′-(((3-hydroxy-6-(methylsulfonamidomethyl)-1-oxo-4H-pyran-2-yl)methyl)amino)-N-methyl-[1,1′-biphenyl]-4-carboxamide]	> 32 µg/mL	> 32 µg/mL	> 32 µg/mL	> 32 µg/mL	> 32 µg/mL	> 32 µg/mL	> 32 µg/mL	–	–	–
